Data set [1] in a line: Ratio of drug level in Sprague-Dawley rat brain to plasma at 5 mg/kg, ip measured after 10 to 180 mins by HPLC-MS analysis. It is filed as ADME, organism-based. The settings on record: brain and plasma, time 10-180 min, read-out: BPR.
A short description of data set [2]: Volume of distribution in Sprague-Dawley rat plasma at 5 mg/kg, ip measured after 10 to 180 mins by HPLC-MS analysis. Type of data set: ADME, organism-based. The settings on record: in vivo, time 10-180 min.
Data set [3] is described as follows: Cmax in Sprague-Dawley rat brain at 5 mg/kg, ip measured up to 30 mins by HPLC-MS analysis. It is filed as ADME, organism-based. Details: route intraperitoneal, dose 5 mg/kg, time <=30.
Data set [4] in a line: Half life in Sprague-Dawley rat plasma at 5 mg/kg, ip measured after 10 to 180 mins by HPLC-MS analysis. Type of data set: ADME, organism-based. The note with it: time 10-180 min.
The nature of data set [5]: AUC (0 to infinity) in Sprague-Dawley rat plasma at 5 mg/kg, ip measured after 10 to 180 mins by HPLC-MS analysis. It is filed as ADME, organism-based. Further details: route intraperitoneal, time lower 10 min, dose 5 mg/kg, time upper 180 min.
Data set [6] deals with Amyloid-beta precursor protein (Homo sapiens, UniProt P05067). The experiment in a line: Inhibition of self-induced amyloid beta (1 to 42) (unknown origin) aggregation incubated for 24 hrs by ThT fluorescence assay.
Chain of Amyloid-beta precursor protein (P05067 whole entry): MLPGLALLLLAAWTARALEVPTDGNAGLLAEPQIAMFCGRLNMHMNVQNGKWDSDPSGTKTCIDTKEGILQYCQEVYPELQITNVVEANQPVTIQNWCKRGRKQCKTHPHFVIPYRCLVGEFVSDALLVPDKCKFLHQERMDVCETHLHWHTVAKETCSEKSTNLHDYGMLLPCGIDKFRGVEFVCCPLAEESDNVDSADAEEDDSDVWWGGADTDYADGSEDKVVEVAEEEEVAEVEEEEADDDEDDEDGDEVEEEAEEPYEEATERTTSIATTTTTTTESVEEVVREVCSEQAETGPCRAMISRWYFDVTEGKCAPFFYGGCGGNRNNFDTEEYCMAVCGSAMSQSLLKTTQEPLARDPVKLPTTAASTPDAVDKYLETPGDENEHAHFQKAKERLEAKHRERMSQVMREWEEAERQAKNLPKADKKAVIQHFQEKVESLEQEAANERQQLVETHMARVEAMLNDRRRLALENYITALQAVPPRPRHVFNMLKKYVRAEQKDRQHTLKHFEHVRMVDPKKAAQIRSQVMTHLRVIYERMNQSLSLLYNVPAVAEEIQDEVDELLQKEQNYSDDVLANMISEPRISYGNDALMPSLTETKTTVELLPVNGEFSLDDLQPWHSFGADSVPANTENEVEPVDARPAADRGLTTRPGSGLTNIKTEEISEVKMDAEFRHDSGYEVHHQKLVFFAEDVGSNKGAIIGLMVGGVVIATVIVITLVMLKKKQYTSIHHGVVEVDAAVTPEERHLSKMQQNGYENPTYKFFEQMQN
In another data set the test system is Plasmodium falciparum. In words: Antiplasmodial activity against Plasmodium falciparum NF54 treated for 96 hrs with replacement of growth medium once a day for 4 days. The settings on record: NF54, 96 h. Type of data set: functional, organism-based.
Data set [7] relates to Staphylococcus epidermidis. In words: Antibacterial activity against Staphylococcus epidermidis incubated for 20 hrs by CLSI-based broth microdilution method. Type of data set: functional. In general terms: In broth dilution the organism is exposed to a series of concentrations in liquid medium.
Another data set deals with Staphylococcus aureus. The experiment in a line: Antibacterial activity against Staphylococcus aureus ATCC 25913 incubated for 20 hrs by CLSI-based broth microdilution method. It is filed as functional.
In a further data set the test system is Enterococcus faecium. In words: Antibacterial activity against Enterococcus faecium BM4105 incubated for 20 hrs by CLSI-based broth microdilution method. Type of data set: functional.
The test system of another data set is Enterococcus faecalis. The experiment in a line: Antibacterial activity against Enterococcus faecalis incubated for 20 hrs by CLSI-based broth microdilution method. Type of data set: functional.
Data set [8] deals with Staphylococcus epidermidis. The experiment in a line: Antibacterial activity against Staphylococcus epidermis ATCC 12228 measured after 18 to 24 hrs by CLSI-based microdilution technique. It is filed as functional. The note with it: time 18-24 hrs.

Values after ≈ are worked out from the molar mass of the structure shown.

Results on four compounds are retold here after ChEMBL document CHEMBL4706610, “Hydroxypyridinone-Based Iron Chelators with Broad-Ranging Biological Activities” (J Med Chem, 2020).

The Cmax is the maximum level reached in the sampled fluid or tissue. In general, half-life refers to the time needed for the level to fall by half in the phase considered. One may read the AUC(0-inf) as the area under the concentration-time curve extrapolated to infinity. As a reminder, the IC50 is the concentration that gives 50% inhibition. A low value points to greater potency. As for `C#CCN(C)CCCn1ccc(=O)c(O)c1C`, the Kp in [1] came out at 0.69. In addition, in [2], the Vd was 18.7 L/kg. This compound also came in with a maximum concentration (Cmax) in data set [3] of 207 ng/mL. The half-life in data set [4] is 1.6 h. The AUC(0-inf) in data set [5] was found to be 636 ng·h/mL. Also, the IC50 in data set [6] turned out to be 2.85 µM.
The compound `C=CCN1C(c2ccccn2)CC(=O)C(C(=O)OC)C1c1ccccn1` (configuration not stated) displayed an IC50 in the data set on Plasmodium falciparum of 1.4 µM.
By MIC is commonly meant the lowest concentration that inhibits growth of the organism. As for `CCN(CC)c1ccc2c(-c3ccc(C(=O)NCc4c(O)c(=O)cc(C)n4C)cc3)c3ccc(=[N+](CC)CC)cc-3oc2c1`, the MIC (in data set [7]; in the data set with Staphylococcus aureus; with Enterococcus faecium; with Enterococcus faecalis) was 11 µM throughout.
The compound `CN(C)c1ccc2c(-c3cc(NC(=S)NCCC(=O)NC(CCCNC(=O)c4[nH]ccc(=O)c4O)(CCCNC(=O)c4[nH]ccc(=O)c4O)CCCNC(=O)c4[nH]ccc(=O)c4O)ccc3C(=O)[O-])c3ccc(=[N+](C)C)cc-3oc2c1` displayed an MIC in [8] of 16 µM (≈ 18.1 µg/mL).
